Among the test systems are MALME-3M melanoma; CAKI-1 renal; SK-MEL-5 melanoma; UACC-257 melanoma; A498 renal; MDA-MB-435; SK-MEL-2 melanoma; DU-145 prostate; BT-549 breast; MDA-N.
What all share (assay): growth of human tumour cells (NCI), 48 h

Each structure is given as a SMILES string. Where “and” joins values, the source holds several entries; their conditions need not be identical. Equal values may be shown once.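 96-well plates; 48 h exposure; 5 concentrations. Endpoints by linear interpolation between flanking doses. Not reached: highest tested concentration assigned. The concentration for 50% growth inhibition is given as GI50. The concentration for full growth arrest is given as TGI.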 *1 amine or outer side, *2 acyl side, *3 side chain or, on linkers, in order; H or OH if unused. Where a SMILES comes first, the peptide text is derived from it. [ ]: non-standard residue; d: D form. The star is where a group is joined. X12 = NCCCCC(N[*:1])C(=O)CN1CCCC1C(=O)[*:2]; Pentadecanoyl = CCCCCCCCCCCCCCC(=O)*

For the compound `CN(C)CC(C)(C)C(=O)/C=C/c1ccccc1`, the TGI is 24.1 µM with MALME-3M melanoma; 40.3 µM with CAKI-1 renal; 30.1 µM in the test on SK-MEL-5 melanoma; 27.2 µM in the test on UACC-257 melanoma; 39.5 µM with A498 renal.

For the compound `N#CC(NNC(=O)c1c(Cl)c(Cl)c(Cl)c(Cl)c1-c1nc2ccc(C(=O)c3ccccc3)cc2[nH]1)c1cccc(Oc2ccccc2)c1` (stereo not drawn), the TGI was 53.6 µM in the test with MDA-MB-435; 47.2 µM in the test with SK-MEL-2 melanoma; greater than 100 µM in the test on DU-145 prostate; 64.8 µM with BT-549 breast; greater than 100 µM with CAKI-1 renal; 38.5 µM with SK-MEL-5 melanoma. Besides, the TGI is 49.6 µM with MDA-N, greater than 100 µM in the test with UACC-257 melanoma and 63.4 µM with A498 renal.

`Cc1cc(N)c2cc(NC(=O)CCCCCCCCC(=O)Nc3ccc4nc(C)cc(N)c4c3)ccc2n1`: the TGI was 68.8 µM in the test on MALME-3M melanoma; greater than 100 µM with SK-MEL-2 melanoma; greater than 100 µM with CAKI-1 renal; greater than 100 µM in the test on SK-MEL-5 melanoma; 96.9 µM in the test with UACC-257 melanoma; 74 µM with A498 renal.

Consider `Clc1ccc(C2=NNC(c3cccc(Cl)c3)C2)cc1` (stereo not drawn), for which the TGI with MDA-MB-435 is 41.8 µM; in the test on MALME-3M melanoma it was greater than 100 µM; in the test with SK-MEL-2 melanoma, 5.55 µM; in the test with DU-145 prostate it was greater than 100 µM; with CAKI-1 renal, greater than 100 µM; in the test on SK-MEL-5 melanoma, 28.1 µM. For the same compound, the figures for the TGI in the test with MDA-N, in the test on UACC-257 melanoma and in the test with A498 renal were 59.6 µM, greater than 100 µM and 45 µM, respectively.

On to `C[S+](C)C1(c2ccccc2)C(=O)c2ccccc2C1=O`, for which the TGI is greater than 100 µM in the test on MDA-MB-435; greater than 100 µM with MALME-3M melanoma; greater than 73.2 µM in the test on SK-MEL-2 melanoma; greater than 100 µM with DU-145 prostate; 35.6 µM in the test on BT-549 breast; greater than 100 µM with CAKI-1 renal. Further, the TGI was greater than 53.5 µM in the test with SK-MEL-5 melanoma, greater than 100 µM in the test on UACC-257 melanoma and greater than 100 µM with A498 renal.

For the compound `COC1OC(=O)C(OC)C(OC)C1OC` (stereo not drawn), the TGI in the test with MDA-MB-435, in the test with SK-MEL-2 melanoma, in the test on DU-145 prostate, in the test on BT-549 breast, in the test with CAKI-1 renal and with SK-MEL-5 melanoma was greater than 100 µM throughout. In addition, the TGI in the test with MDA-N, in the test on UACC-257 melanoma and with A498 renal was greater than 100 µM throughout.

For `Cc1cccc(-c2cc(=O)c3cc(C)cnc3[nH]2)c1`, the TGI in the test with MALME-3M melanoma was greater than 100 µM; in the test with SK-MEL-2 melanoma, greater than 100 µM; in the test with DU-145 prostate, 13.3 µM; in the test on BT-549 breast, greater than 58.3 µM; in the test with CAKI-1 renal, greater than 100 µM; in the test with SK-MEL-5 melanoma it was 21 µM. For the same compound, the values for the TGI in the test with UACC-257 melanoma and in the test on A498 renal were greater than 100 µM and greater than 24.2 µM, respectively.

With `Cc1nc2cccc(F)c2c(=O)n1-c1nnc(C2CC2)s1`, the TGI in the test on MDA-MB-435, with SK-MEL-2 melanoma, in the test with DU-145 prostate, in the test with CAKI-1 renal, in the test with SK-MEL-5 melanoma and in the test with MDA-N was greater than 10 µM throughout. The TGI in the test on UACC-257 melanoma is greater than 10 µM.

As to `Cc1cnc2[nH]c(-c3sccc3C)cc(=O)c2c1`, the TGI in the test on MALME-3M melanoma is greater than 100 µM; with SK-MEL-2 melanoma it was greater than 100 µM; in the test with DU-145 prostate, greater than 100 µM; in the test with BT-549 breast, greater than 100 µM; with CAKI-1 renal it was greater than 100 µM; in the test with SK-MEL-5 melanoma, 21.7 µM. Also, the TGI in the test on MDA-N was 2.96 µM; in the test on UACC-257 melanoma, greater than 100 µM; in the test on A498 renal it was greater than 100 µM.

For the compound `N#Cc1nc(-c2ccccn2)c(-c2ccccn2)nc1C#N`, the TGI with MDA-MB-435 is 22.4 µM; in the test with SK-MEL-2 melanoma, 10.6 µM; in the test with DU-145 prostate, 12.7 µM; in the test with BT-549 breast, 12.1 µM; in the test on CAKI-1 renal, 6.81 µM; with SK-MEL-5 melanoma it was greater than 36.5 µM. Also, the TGI is greater than 100 µM in the test on MDA-N, 14.7 µM in the test on UACC-257 melanoma and 8.19 µM with A498 renal.

In the case of `S=C1NNC(=S)NN1`, the TGI in the test on MALME-3M melanoma is greater than 1 µM; with SK-MEL-2 melanoma, greater than 1 µM; with DU-145 prostate it was greater than 1 µM; with BT-549 breast, greater than 1 µM; with CAKI-1 renal, 0.475 µM; in the test with SK-MEL-5 melanoma it was greater than 1 µM. The TGI in the test with MDA-N, in the test on UACC-257 melanoma and with A498 renal was greater than 1 µM throughout.

For the compound `COc1cccc2c1C(=O)c1c(O)c3c(c(O)c1C2=O)C[C@@](O)(C(=O)CO)CC3OC1CC(NCCCCC(OC(C)=O)OC(C)=O)C(O)C(C)O1` (stereo partly drawn), the GI50 in the test on SK-MEL-2 melanoma is 0.00171 µM; in the test on SK-MEL-5 melanoma, 0.00152 µM; in the test on UACC-257 melanoma, 0.00286 µM. Moreover, the TGI in the test on SK-MEL-2 melanoma is 0.00435 µM and 0.00331 µM; in the test on CAKI-1 renal, 0.00812 µM; with SK-MEL-5 melanoma, 0.00341 µM; with UACC-257 melanoma it was 0.00798 µM; in the test on A498 renal, 0.0211 µM.

As to `CCCCCCCCCCCCCCC(=O)NC(CCCCN)C(=O)CN1CCCC1C(=O)NCC(=O)NC(Cc1ccccc1)C(=O)N1CCCC1C(=O)NC(CO)C(=O)NC(Cc1ccc(O)cc1)C(=O)NC(CCCCN)C(=O)NC(CC(C)C)C(=O)NC(CCCN=C(N)N)C(=O)N1CCCC1C(=O)NCC(N)=O` (stereo not drawn) (Pentadecanoyl-[X12]GFPSYKLRPG-NH2; configuration not given here), the GI50 in the test with MDA-MB-435 was 28.2 µM; in the test with MALME-3M melanoma, 8.11 µM; in the test with SK-MEL-2 melanoma, 37.5 µM; in the test on DU-145 prostate, 24.1 µM; in the test with BT-549 breast it was 29.6 µM; in the test with CAKI-1 renal, 20.6 µM. In addition, the results for the GI50 with SK-MEL-5 melanoma, with UACC-257 melanoma and in the test on A498 renal were 30.5 µM, 29.5 µM and 40.6 µM, respectively. Besides, the TGI is 89.3 µM in the test with MDA-MB-435; 32.2 µM in the test with MALME-3M melanoma; greater than 100 µM in the test with SK-MEL-2 melanoma; 53.8 µM in the test with DU-145 prostate; 59.6 µM with BT-549 breast; 48.7 µM in the test on CAKI-1 renal. In addition, the figures for the TGI in the test on SK-MEL-5 melanoma, in the test with UACC-257 melanoma and in the test with A498 renal were greater than 100 µM, 52.1 µM and greater than 100 µM, respectively.

`CCOC(=O)c1sc2[n+](c1C)C(=O)/C(=C/c1ccccc1Cl)S2`: the TGI in the test on MDA-MB-435 was greater than 100 µM; in the test with MALME-3M melanoma, 31.5 µM; in the test on SK-MEL-2 melanoma it was greater than 74.7 µM; with DU-145 prostate, greater than 35.6 µM; in the test on CAKI-1 renal, 24.5 µM; with SK-MEL-5 melanoma, 1.89 µM. For the same compound, the figures for the TGI in the test with MDA-N, in the test on UACC-257 melanoma and in the test on A498 renal were 0.565 µM, greater than 70.2 µM and greater than 56.8 µM, respectively.

Consider `O=C1/C(=C/Cc2ccco2)N=C(c2ccccc2)N1c1nc2c(Cl)cc(Cl)cc2s1`, for which the TGI is 60.1 µM in the test with MDA-MB-435; 63.5 µM in the test on SK-MEL-2 melanoma; greater than 100 µM with DU-145 prostate; 83.5 µM in the test with BT-549 breast; greater than 100 µM in the test on CAKI-1 renal; greater than 100 µM in the test with SK-MEL-5 melanoma. Further, the TGI in the test with MDA-N was 47.9 µM; in the test with UACC-257 melanoma, greater than 100 µM; in the test with A498 renal it was 43.4 µM.
